System: WHO Grade IV malignant glioma
Experiment: Progression free survival (PFS) and overall survival (OS), MRZ ± BEV in recurrent grade IV malignant glioma patients
Format: in vivo, human
Procedure: Tumor response was measured every other cycle by RANO criteria.
The drugs were infused on 28-Day Cycles. Tumor response is assessed every other cycle by RANO criteria.
Tumor response, including PD activity, progression-free survival (PFS), and overall survival (OS) will be assessed. Tumor response will be assessed by the Investigators using RANO 2010 criteria. […] Endpoints of response based on tumor assessments will be calculated for subjects who received at least 3 doses of MRZ and had at least 1 post-dose tumor evaluation.
Tumor response including PD, progression-free survival (PFS), and overall survival (OS) will be assessed by the Investigators using RANO 2010 criteria.

Compound: C[C@@]12OC(=O)[C@]1([C@@H](O)[C@@H]1C=CCCC1)NC(=O)[C@@H]2CCCl [MRZ, marizomib]
- PFS Median (All Patients): 1.8
- 6 mo Overall Survival (All Pts): 64%
- 9 mo Overall Survival (All Pts): 64%
- 6 mo Overall Survival (Methylated MGMT Promoter): 83%
- 9 mo Overall Survival (Methylated MGMT Promoter): 83%
- PFS Median (Methylated MGMT Promoter): 1.7
- OS 6 mo (Monotherapy, Methylated (7)): 83%
- OS 9 mo (Monotherapy, Methylated (7)): 83%
- OS Median (Monotherapy, Methylated (7)): Undefined
- PFS 3 mo (Monotherapy, Methylated (7)): 40%
- PFS Median (Monotherapy, Methylated (7)): 1.7 months
- OS 6 mo (Monotherapy, Unmethylated (18)): 65%
- OS 9 mo (Monotherapy, Unmethylated (18)): 65%
- OS Median (Monotherapy, Unmethylated (18)): Undefined
- PFS 3 mo (Monotherapy, Unmethylated (18)): 20%
- PFS Median (Monotherapy, Unmethylated (18)): 1.9 months
- median overall survival (Part II monotherapy, 16 events, median follow-up 9.2 months): 11.4 months
- OS 6 mo % (Part II, N = 30, 14 censored): 59%
- OS 9 mo % (Part II, N = 30, 14 censored): 54%
- OS 12 mo % (Part II, N = 30, 14 censored): 17%
- 6 mo Overall Survival (Unmethylated MGMT Promoter): 65%
- 9 mo Overall Survival (Unmethylated MGMT Promoter): 65%
- PFS Median (Unmethylated MGMT Promoter): 1.9

— patent US20200085789A1, “USE OF A PROTEASOME INHIBITOR FOR THE TREATMENT OF CENTRAL NERVOUS SYSTEM (CNS) CANCERS” (Celgene International II Sàrl, priority 2017, published 2020)
